The values below come from patent publication US6362166B1, “Antipicornaviral compounds and methods for their use and preparation” (Agouron Pharmaceuticals, Inc., priority 1996, dated 2002).

Data set [1] deals with T1, Recombinant Rhinovirus 3C protease (RVP) serotype-14 (Human rhinovirus 14, UniProt P03303).
T1 construct: Recombinant Rhinovirus 3C proteases from serotypes 14, 16, 2 or 89; made in house
The data set is described as follows: Inhibition of Rhinovirus Protease (fluorescence resonance energy transfer assay), serotype 14. It is filed as biochemical, human rhinovirus (HRV). Conditions: for kinact/KI: pH 7.6, read-out: kobs/I; for kobs/I: progress curves in enzyme start experiments; for INHIB (percent inhibition): 10 minute preincubation with 50 nM RVP.

The test system of another data set is HRV-14. Kind of data set: Antirhinoviral HI-HeLa Cell Culture Assay (Cell Protection Assay, XTT dye reduction). Conditions: HI-HeLa cells infected with HRV-14, m.o.i. 0.13, two days, XTT, read-out: EC50. It is filed as cell-based, human rhinovirus (HRV) serotype-14. A digest of the protocol: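 Protection measured via XTT dye reduction (450/650 nm) two days after compound treatment of HI-HeLa cells, mock-infected or infected with cDNA-derived HRV-14 at m.o.i. 0.13. CC50 divided by EC50 gives the therapeutic index.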
(Formazan colour is commonly taken as a measure of viable cells.)

A short description of data set [2]: Cytotoxicity in mock-infected HI-HeLa cells (antirhinoviral assay, XTT). Conditions: human; mock-infected HI-HeLa cells; two days; XTT; read-out: CC50. In kind it is cell-based.
In another data set the test system is HI-HeLa cells. Described as above. In kind it is cell-based.
Where [3] appears, read: RVP serotype-14, 10 minute preincubation, substrate start, read-out: INHIB (Ki).
The mark [4] stands for this setting: mock-infected HI-HeLa cells, two days, XTT, read-out: CC50.

Molecules are shown by their SMILES. Like-named read-outs stand apart in the source and are kept apart here.

T1 sequence (P03303 1538-1719): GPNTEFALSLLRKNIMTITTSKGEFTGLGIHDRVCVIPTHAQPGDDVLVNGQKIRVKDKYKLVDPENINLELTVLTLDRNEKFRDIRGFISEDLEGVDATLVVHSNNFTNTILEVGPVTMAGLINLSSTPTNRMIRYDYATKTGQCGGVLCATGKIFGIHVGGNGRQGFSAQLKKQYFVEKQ

As usually defined, the Ki is a measure of affinity in units of concentration, obtained from inhibition or displacement. For orientation: EC50 means the concentration at which the effect is half-maximal. Usually CC50 stands for the concentration giving 50% cytotoxicity. For `CC(C)C[C@H](NC(=O)OCc1ccccc1)C(=O)N[C@@H](Cc1ccccc1)C(=O)N[C@H](/C=C/C(=O)N1CCc2cccc(Cl)c21)CCC(N)=O` [Compound 91], in data set [1], the Ki stood at 10 µM and the kinact/KI came out at 5430 M⁻¹ s⁻¹. Further, the EC50 in the data set on HRV-14 (Rhinovirus B, HRV14, 48 h) came out at 56 µM. Besides, in data set [2], the half-maximal cytotoxic concentration (CC50) at 2 days is more than 320 µM.
The corresponding values for `CCOC(=O)/C=C/[C@H](CCC(N)=O)NC(=O)[C@H](Cc1ccccc1)NC(=O)[C@H](CC(C)C)NC(=O)CO` [Compound 111] are 5 µM, 2060 M⁻¹ s⁻¹, 29.5 µM and more than 320 µM.
Consider `CCOC(=O)/C=C/C(CCC(N)=O)NC(=O)C(Cc1ccccc1)NC(=O)C(CC(C)C)NC(=O)c1ccc2ccccc2c1` (centres unmarked) [Compound 44], for which, in data set [1], the Ki amounted to 12.6 µM and the kinact/KI amounted to 21000 M⁻¹ s⁻¹. Besides, in the data set with HRV-14 (Rhinovirus B, HRV14, 48 h), the EC50 was 1 µM. Further, the CC50 at 2 days in data set [2] is more than 320 µM.
On to `CC(C)C[C@H](NC(=O)OCc1ccccc1)C(=O)N[C@@H](Cc1ccccc1)C(=O)N[C@H](/C=C/C(=O)N1CCc2cc(Br)ccc21)CCC(N)=O` [Compound 94], for which, in data set [1], the inhibitory constant (Ki) was determined as 1.5 µM and the kinact/KI came to 5800 M⁻¹ s⁻¹. Moreover, in the data set on HRV-14 (Rhinovirus B, HRV14, 48 h), the concentration for a half-maximal effect (EC50) is 46.8 µM. For the same compound, the CC50 at 2 days in data set [2] was more than 320 µM.
Regarding `CC(C)CC(NC(=O)OCc1ccccc1)C(=O)NC(Cc1ccccc1)C(=O)NC(C=C1CCCOC1=O)CCC(N)=O` (centres unmarked) [Compound 130], the Ki in data set [1] was 0.03 to 0.04 µM. In the data set on HRV-14 (Rhinovirus B, HRV14, 48 h), the EC50 came out at 15.8 µM. Besides, the CC50 at 2 days in data set [2] was more than 100 µM.
Take `CC(=O)OCC=CC(CCC(N)=O)NC(=O)C(Cc1ccccc1)NC(=O)C(CC(C)C)NC(=O)OCc1ccccc1` (centres unmarked) [Compound 76]: the 50% effective concentration (EC50) with HRV-14 (Rhinovirus B, HRV14, 48 h) was more than 320 µM. The CC50 at 2 days in data set [2] was more than 320 µM.
Turning to `CCOC(=O)/C=C/[C@H](CCC(N)=O)NC(=O)[C@H](Cc1ccccc1)NC(=O)CNC(=O)OCc1ccccc1` [Compound 102], in data set [1], the inhibition constant Ki came out at 12 µM and the kinact/KI was determined as 3840 M⁻¹ s⁻¹. Besides, in the data set with HRV-14 (Rhinovirus B, HRV14, 48 h), the 50% effective concentration (EC50) was 5.6 µM. Besides, the CC50 at 2 days in data set [2] is more than 320 µM.
On to `CC(C)C[C@H](NC(=O)OCc1ccccc1)C(=O)N[C@@H](Cc1ccccc1)C(=O)N[C@H](/C=C/C(=O)N1CCc2cc(F)ccc21)CCC(N)=O` [Compound 87], for which, in data set [1], the Ki came out at 6 µM and the kinact/KI stood at 5430 M⁻¹ s⁻¹. Further, the concentration for a half-maximal effect (EC50) with HRV-14 (Rhinovirus B, HRV14, 48 h) stood at 10.6 µM. Moreover, in data set [2], the 50% cytotoxic concentration (CC50) at 2 days is more than 320 µM.
The corresponding values for `CC(C)C[C@H](NC(=O)OCc1ccccc1)C(=O)N[C@@H](Cc1ccccc1)C(=O)N[C@H](/C=C/C(=O)OC1CCCCC1)CCC(N)=O` [Compound 25] are 5.5 µM, 3700 M⁻¹ s⁻¹, 3.1 µM and more than 100 µM.
On the same counts, the results for `CCOC(=O)/C=C/[C@H](CCC(N)=O)NC(=O)[C@H](Cc1ccccc1)NC(=O)[C@@H](NC(=O)OCc1ccccc1)C(C)(C)C` [Compound 151] are more than 4.8 µM, 39800 M⁻¹ s⁻¹, 0.32 µM and 178 µM.
As for `CC(C)C[C@H](NC(=O)OCc1ccccc1)C(=O)N[C@@H](Cc1ccccc1)C(=O)N[C@H](/C=C/C(=O)N1CCc2cc(S(=O)(=O)N(C)C)ccc21)CCC(N)=O` [Compound 88], in data set [1], the Ki was more than 30 µM and the kinact/KI amounted to 8960 M⁻¹ s⁻¹. The EC50 in the data set with HRV-14 (Rhinovirus B, HRV14, 48 h) was 8.8 µM. In addition, the CC50 at 2 days in data set [2] was more than 160 µM.
In the case of `CC(C)C[C@H](NC(=O)OCc1ccccc1)C(=O)N[C@@H](Cc1ccccc1)C(=O)N[C@H](/C=C\CCl)CCC(N)=O` [Compound 78], the Ki in data set [1] came to 7 µM. Also, in the data set on HRV-14 (Rhinovirus B, HRV14, 48 h), the EC50 worked out at 10 µM. In addition, in data set [2], the half-maximal cytotoxic concentration (CC50) at 2 days was determined as 79.4 µM.
Consider `CCOC(=O)/C=C/[C@H](CCC(N)=O)NC(=O)[C@H](Cc1ccc(C#N)cc1)NC(=O)[C@H](CC(C)C)NC(=O)OCc1ccccc1` [Compound 132], for which, in data set [1], the Ki worked out at 10 µM and the kinact/KI worked out at 10800 M⁻¹ s⁻¹. In the data set with HRV-14 (Rhinovirus B, HRV14, 48 h), the EC50 stood at 5.6 µM. Moreover, the half-maximal cytotoxic concentration (CC50) at 2 days in data set [2] was more than 320 µM.
On the same counts, the results for `CCOC(=O)/C=C/[C@H](CCC(N)=O)NC(=O)[C@H](Cc1ccccc1)NC(=O)[C@H](CC(C)C)NC(=O)CCO` [Compound 115] are 11 µM, 4480 M⁻¹ s⁻¹, 19 µM and more than 320 µM.
Turning to `COc1cccc2[nH]c(C(=O)NC(Cc3ccc(F)cc3)C(=O)NC(/C=C/C(=O)O)CCC(N)=O)cc12` (centres unmarked) [Compound 45], in the data set with HRV-14 (Rhinovirus B, HRV14, 48 h), the EC50 is more than 100 µM. Besides, the CC50 at 2 days in data set [2] was more than 100 µM.
Regarding `CCOC(=O)/C=C/C(CCC(N)=O)NC(=O)C(Cc1ccc(Cl)cc1)NC(=O)c1cc2c(OC)cccc2n1C(c1ccccc1)(c1ccccc1)c1ccccc1` [Compound 29, Ethyl-3-[N-(1-Tr-4-Methoxyindole-2-Carbonyl)-L-(4-Cl-Phe)-L-Gln]-E-Propenoate], the half-maximal effective concentration (EC50) with HRV-14 (Rhinovirus B, HRV14, 48 h) came to 27 µM. Also, the CC50 at 2 days in data set [2] worked out at 500 µM.
The corresponding values for `CC(C)CC(NC(=O)OCc1ccccc1)C(=O)NC(Cc1ccccc1)C(=O)NC(C=CCOc1ccc(C(F)(F)F)cc1)CCC(N)=O` (centres unmarked) [Compound 77] are more than 320 µM and more than 320 µM.
In the case of `CCOC(=O)/C=C/[C@H](CCC(N)=O)NC(=O)[C@H](Cc1cccc(F)c1)NC(=O)c1cc2c(OC)cccc2[nH]1` [Compound 28, Ethyl-3-[N-(4-Methoxyindole-2-Carbonyl)-L-(3-F-Phe)-L-Gln]-E-Propenoate], in data set [1] (setting [3]), the inhibitory constant (Ki) stood at 57 µM. Also, the kobs/I in data set [1] (RVP serotype-14) was 4,000 M-1 sec-1. Moreover, the concentration giving a half-maximal response (EC50) with HRV-14 came out at 4.5 µM. In the data set with HI-HeLa cells, this compound registered a CC50 of 63.1 µM.
Take `CCOC(=O)/C=C/[C@H](CCC(N)=O)NC(=O)[C@H](Cc1ccccc1)NS(=O)(=O)c1ccccc1` [Compound 34, Ethyl-3-[N-(Phenylsulfonyl)-L-Phe-L-Gln]-E-Propenoate]: the “INHIB (percent inhibition)” value in data set [1] (RVP serotype-14, 10 μM compound) is 10(10) percent. Also, in data set [1] (RVP serotype-14), the kobs/I stood at 34 M⁻¹ s⁻¹. Also, the EC50 in the data set on HRV-14 is 100 µM. Further, the half-maximal cytotoxic concentration (CC50) in the data set with HI-HeLa cells (setting [4]) is more than 100 µM.
For the compound `CC(C)C[C@H](NC(=O)OCc1ccccc1)C(=O)N[C@@H](Cc1ccccc1)C(=O)N[C@H](/C=C/C(=O)N1CCc2ccc(S(C)(=O)=O)cc21)CCC(N)=O` [Compound 97], the kobs/I in data set [1] (RVP serotype-14) is 12,900 M-1 sec-1. In addition, the concentration for a half-maximal effect (EC50) in the data set with HRV-14 is more than 320 µM. Also, the half-maximal cytotoxic concentration (CC50) with HI-HeLa cells (setting [4]) was more than 320 µM.
Turning to `CC(C)C[C@H](NC(=O)OCc1ccccc1)C(=O)N[C@@H](Cc1ccccc1)C(=O)N[C@H](/C=C/C(=O)Nc1ccccc1)CCC(N)=O` [Compound 59], the Ki in data set [1] (setting [3]) was 2 µM. Also, the kobs/I in data set [1] (RVP serotype-14) stood at 200 M⁻¹ s⁻¹. In addition, the EC50 in the data set on HRV-14 is more than 320 µM. For the same compound, in the data set on HI-HeLa cells (setting [4]), the CC50 is more than 320 µM.
Regarding `CCOC(=O)/C=C/[C@H](CCC(N)=O)NC(=O)[C@H](Cc1ccc(Cl)cc1)NC(=O)c1cc2c(OC)cccc2[nH]1` [Compound 26, Ethyl-3-[N-(4-Methoxyindole-2-Carbonyl)-L-(4-Cl-Phe)-L-Gln]-E-Propenoate], the “INHIB (percent inhibition)” value in data set [1] (RVP serotype-14, 0.1 μM compound) is listed as 52(0.1) percent. Also, the kobs/I in data set [1] (RVP serotype-14) is reported as 5,400 M-1 sec-1. In addition, in the data set with HRV-14, the EC50 worked out at 2 µM. Also, in the data set with HI-HeLa cells, the CC50 came out at 44.7 µM.
Turning to `CCOC(=O)/C=C/[C@H](CCC(N)=O)NC(=O)[C@H](Cc1ccccc1)NC(=O)[C@H](CC(C)C)NC(=O)c1ccccc1` [Compound 67], in data set [1] (RVP serotype-14), the kobs/I is 9,600 M-1 sec-1. For the same compound, the EC50 with HRV-14 stood at 5.2 µM. This compound registered a CC50 with HI-HeLa cells of more than 320 µM.
The corresponding values for `CC(C)C[C@H](NC(=O)OCc1ccccc1)C(=O)N[C@@H](Cc1ccccc1)C(=O)N[C@H](/C=C/[N+](=O)[O-])CCC(N)=O` [Compound 125] are >500,000 M-1 sec-1, more than 100 µM and 100 µM.
